Experimental data published in PMC6321136, “Combined In Vitro Studies and in Silico Target Fishing for the Evaluation of the Biological Activities of Diphylleia cymosa and Podophyllum hexandrum” (Molecules, 2018).
Values after ≈ are worked out from the molar mass of the structure shown. Like-named read-outs stand apart in the source and are kept apart here.

Legend:
Anti-Inflammatory model = system: Anti-Inflammatory model; parameters: method as in PubChem Bioassay AID 489035; details: ref PubChem Bioassay AID 489035; cited from earlier work
[1] = system: 1-acylglycerol-3-phosphate O-acyltransferase ABHD5; parameters: method as in PubChem Bioassay AID 493035; details: ref PubChem Bioassay AID 493035; cited from earlier work
Agonist, p53 [2] = system: Agonist, p53; parameters: method as in PubChem Bioassay AID 651631; details: ref PubChem Bioassay AID 651631; cited from earlier work
[3] = system: Antagonist, vitamin D receptor (VDR); parameters: method as in PubChem Bioassay AID 743242; details: ref PubChem Bioassay AID 743242; cited from earlier work
[4] = system: Cytotoxicity, Agonist, p53; parameters: method as in PubChem Bioassay AID 651633; details: ref PubChem Bioassay AID 651633; cited from earlier work
[5] = system: Agonist, thyroid stimulating hormone receptor (TSHR); parameters: method as in PubChem Bioassay AID 1224843; details: ref PubChem Bioassay AID 1224843; cited from earlier work
[6] = β-Carotene/linoleic acid co-oxidation assay
Protocol: The evaluation of the antioxidant activity using the β-carotene/linoleic acid co-oxidation system was performed according to Duarte-Almeida et al., with adaptations. The extracts were solubilized in MeOH (2.2 mg/mL) and further diluted to concentrations ranging from 3.125 to 200 μg/mL. An aliquot of 25 μL of sample solutions were added in the 96-well microplate. 25 mg of linoleic acid and 100 mg Tween 20 (Sigma, St. Louis, MO, USA) were added to a round-bottom flask containing 1 mL of a β-carotene solution (1 mg/mL, Sigma, St. Louis, MO, USA) in chloroform. The latter was removed in a rotatory evaporator and, then, 50 mL of aerated water was added to the flask, affording the β-carotene emulsion. Portions of 250 μL of the freshly prepared emulsion were added to the wells corresponding to the odd columns of a microplate. […] Readings were performed immediately at 470 nm. After the first reading, the microplate was incubated at 45 °C and the kinetic cycle was performed with readings at 15 min intervals for a total of 120 min. The antioxidant activity was expressed as % of inhibition of lipid peroxidation (%I), using the formula (I% = Ac (initial abs − Final abs) − Aam (final abs − Initial abs)/Ac × 100). Assays were performed in triplicate and IC50 values were determined by non-linear regression using GraphPad Prism, version 6.0 (GraphPad Software, San Diego, CA, USA).

Agonist, p53 [7] = system: Agonist, p53; parameters: method as in PubChem Bioassay AID 720552; details: ref PubChem Bioassay AID 720552; cited from earlier work
[8] = system: beta-2 adrenergic receptor; parameters: method as in PubChem Bioassay AID 504459; details: ref PubChem Bioassay AID 504459; cited from earlier work
[9] = system: Agonist, thyroid receptor (TR); parameters: method as in PubChem Bioassay AID 743066; details: ref PubChem Bioassay AID 743066; cited from earlier work
[10] = system: Anticancer, non-Hodgkin lymphoma; parameters: method as in PubChem Bioassay AID 651568; details: ref PubChem Bioassay AID 651568; cited from earlier work
[11] = Cytotoxicity in THP-1 cells, SRB method; format: cell-based; details: human, THP-1 cells (PMA-treated, adherent)
Protocol: The assay was performed following the sulforhodamine B (SRB) method. THP-1 cells (acute human monocytic leukemia cells, ATCC TIB-202) were cultured in a RPMI medium supplemented with 10% fetal bovine serum. A cell suspension was prepared at the density of 1 × 10^6 cells/mL with 2 μL of PMA (phorbol myristyl acetate, Sigma, St. Louis, MO, USA, 30 µg/mL). A portion of 100 μL of this suspension was transferred to the wells of a microplate. The plate was incubated at 37 °C, in a 5% CO2 atmosphere, for about 12 to 16 h to allow cells to adhere. After that, 100 μL of each sample (400, 200, 100, 50 and 25 μg/mL) were added to the wells. The plate was then incubated at 37 °C for 18 h. After incubation, 100 μL of cold trichloroacetic acid (TCA, 10%) solution was added in each well. The plate was incubated at 4 °C for 1 h. The supernatant was discarded and the wells were washed three times with 200 μL of distilled water. Then, the wells were allowed to dry for 24 h. […] The plate was then stirred for 5 min inside the microplate reader. The optical density was measured at 510 nm in a microplate reader. […] Cell viability was calculated according to the formula (A − B/C − B) × 100, where A, B and C corresponds to the absorbance measured for the samples, blank and negative control, respectively. […]

[12] = system: Antagonist, androgen receptor (AR); parameters: method as in PubChem Bioassay AID 743035; details: ref PubChem Bioassay AID 743035; cited from earlier work
[13] = system: Agonist, retinoic acid receptor (RAR); parameters: method as in PubChem Bioassay AID 1159553; details: ref PubChem Bioassay AID 1159553; cited from earlier work
[14] = system: ADMET, Cytochrome P450 3A4; parameters: method as in PubChem Bioassay AID 885; details: ref PubChem Bioassay AID 885; cited from earlier work
[15] = system: Cell Cycle Modulation (counterscreen); parameters: method as in PubChem Bioassay AID 1117350; details: ref PubChem Bioassay AID 1117350; cited from earlier work

COc1cc([C@@H]2c3cc4c(cc3[C@H](O)[C@H]3COC(=O)[C@H]23)OCO4)cc(OC)c1OC [Podophyllotoxin, podophyllotoxin]
Exper. Activity (Anti-Inflammatory model): Inactive | Exper. Activity [1]: Inactive | Exper. Activity (Agonist, p53 [2]): Inactive | Exper. Activity [3]: Active | Exper. Activity [4]: Inactive | Exper. Activity [5]: Inactive | Antioxidant Activity (IC50-µg/mL) β-Carotene/linoleic Acid [6]: >200 µg/mL | Exper. Activity (Agonist, p53 [7]): Inactive | Exper. Activity [8]: Inactive | Exper. Activity [9]: Inactive | Exper. Activity [10]: Inactive | CC50 at 18 h [11]: 400 ± 10.3 µg/mL (≈ 965 µM) | Exper. Activity [12]: Active | Exper. Activity [13]: Inactive | Exper. Activity [14]: Inactive | Exper. Activity [15]: Active
